Blank lines part the entries; values can stand above or below the compound they belong to.
Columns and labels:
rh-MIF = target: T1, rh-MIF (Homo sapiens, UniProt P14174); assay: Mass spectrometry; settings: 30 μM rh-MIF plus 30 μM compound, 1 hr at room temperature in the dark
T1 sequence (P14174 2-115 limits assumed): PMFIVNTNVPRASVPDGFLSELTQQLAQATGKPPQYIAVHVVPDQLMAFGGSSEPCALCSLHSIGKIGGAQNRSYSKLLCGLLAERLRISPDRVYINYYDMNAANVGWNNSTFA

Human MIF = target: T2, Human MIF (Homo sapiens, UniProt P14174); settings: cited from earlier work
T2 sequence (P14174 2-115 limits assumed): T1 sequence (P14174 2-115 limits assumed)

MIF-CD74 = target: T3, MIF-CD74 (Homo sapiens, UniProt P14174); settings: cited from earlier work
T3 sequence (P14174 2-115 limits assumed): T1 sequence (P14174 2-115 limits assumed)

Compound: Ic1cc(-c2ccccc2)ncn1 [Cp 4-IPP, 4-iodo-6-phenylpyrimidine]
covalent adduct with MIF by mass spectrometry (rh-MIF): appearance of the covalent adduct at the mass of MIF + ca. 155 Da

covalent adduct with MIF by mass spectrometry (rh-MIF): no additional peaks emerged
Compound: Cc1ccc2oc(=O)n(Cc3cccc(O)c3)c2c1 [Cp 5]

Compound: Cc1ccc2oc(=O)n(Cc3ccccc3)c2c1 [Cp 1]
mode of inhibition of tautomerase activity (Michaelis-Menten analyses) (Human MIF): competitive inhibitor

Compound: CC(=O)N=C1C=CC(=O)C=C1 [NAPQI]
effect on MIF tautomerase activity (Human MIF): decreases
effect on MIF receptor binding activity (MIF-CD74): decreases
